Laboratory results as given in ChEMBL document CHEMBL1158552, “Transkarbams as transdermal permeation enhancers: effects of ester position and ammonium carbamate formation” (Bioorg Med Chem Lett, 2010).

What was measured:
[1] = Potentiation of theophylline transdermal permeation in pig ear skin at pH 7 by Franz diffusion cells method; type: ADME, Sus scrofa; details: artificial membrane
[2] = Potentiation of theophylline transdermal permeation in pig ear skin by Franz diffusion cells method; type: ADME, cell-based, Sus scrofa; details: artificial membrane

Row | Activity [1] | Activity [2] | SMILES
1 | Active | – | CCCCCCOC(=O)CCCCCCCCCCCN.Cl
2 | Active | – | CCCCCCCCCCCCCOC(=O)CCCCN.Cl
3 | Active | Active | CCCCCCCCCCCCOC(=O)CCCCCN.Cl
4 | Active | Active | CCCCCCCCCCCOC(=O)CCCCCCN.Cl
5 | Active | Active | CCCCCCCCCCOC(=O)CCCCCCCN.Cl
6 | Active | – | CCCCCCCCOC(=O)CCCCCCCCCN.Cl

The next lines start with the compound.

Row | SMILES | Activity [1] | Activity [2]
7 | CCCCCCCCCCCCCCCOC(=O)CCN.Cl | Active | –
8 | CCCCCCCCCCOC(=O)CCCCCCCN | Not Active | Active
9 | CCCCCCCCOC(=O)CCCCCCCCCN | Not Active | Active
10 | CCCCCCCCCCCCCCCOC(=O)CCN | Not Active | Active
11 | CCCCCCCCCCCCCCOC(=O)CCCN | Not Active | Active
12 | CCCCCCCCCCCCCCOC(=O)CCCN.Cl | Active | –
13 | CCCCCCOC(=O)CCCCCCCCCCCN | Not Active | Active
14 | CCCCCCCCCCCCCOC(=O)CCCCN | Not Active | Active
15 | CCCCCCCCCCCCOC(=O)CCCCCN | Not Active | Active
16 | CCCCCCCCCCCOC(=O)CCCCCCN | Not Active | Active
